# System: MCF-7 breast cancer cell line
# Test: MTT assay against breast cancer cell line
# Assay type: cell-based
# Conditions: Homo sapiens, MCF7, 72 hours after treatment; for cytotoxicity at 100 µM / viability at 100 µM: MCF-7, 100 uM; for cytotoxicity at 100 µM / cytotoxicity at 300 µM: read-out: % Dead cells; for viability at 100 µM / viability at 300 µM: read-out: % Live cells; for cytotoxicity at 300 µM / viability at 300 µM: MCF-7, 300 uM
# Method: In another embodiment, the functionalized maleimides and isomaleimides of Formula (I) are useful as antimicrobials and anti-cancer agents. MTT assay of compounds of Formula (I) is summarized below in Table-1 The compounds were tested against breast cancer cell line at 100 and 300 μM concentrations and % live and % dead cells were determined.
# The compounds were evaluated for anti-cancer activity by testing them against breast cancer cell lines obtained from NCCS, Pune, India. The MITT assay was carried out. The assay procedure involves reconstitution of the pre-measured MTT reagent in the assay buffer, followed by its addition to the culture system. After dissolving the formazan crystals in the solubilization solution, results can be directly read on a suitable reader.
# • 1. Harvest the cells; • 2. Seed 10,000 cells in 100 μl DMEM media/well in 96-well microtiter plate in triplicate; • 3. Incubate the cells at 37° C., 5% CO2 for 24 hours to achieve morphology; • 4. Treat the cells with varying concentrations of drugs; • 5. Controls included untreated cells and cells treated with 100 uM Doxorubicin; • 6. Incubate the cells for 72 hours after treatment; • 7. Add 10 μl of MTT to each well, including controls; • 8. Wrap the plate with aluminium foil to avoid exposure to light; • 9. Return the plate to the incubator for 2 hours; • 10. Observe the cells under an inverted microscope for presence of intracellular needle-shaped, dark purple coloured precipitate; • 11. When the purple precipitate is clearly visible under the microscope, add 100 μl of solubilization solution to the wells; • 12. Stir gently on a gyratory shaker to enhance dissolution of the crystals; • 13. Read the absorbance on a spectrophotometer or an ELISA reader at 570 nm with a reference wavelength higher than 650 nm.
Compound,cytotoxicity at 100 µM [%],viability at 100 µM [%],cytotoxicity at 300 µM [%],viability at 300 µM [%]
"CCOC(=O)CC1=C(C(c2ccccc2)c2ccccc2)C(=O)O/C1=N\C1CCC(C)CC1 (stereo not drawn) [Compound 3p, Ethyl (Z)-2-(4-benzhydryl-2-((4-methylcyclohexyl)imino)-5-oxo-2,5-dihydrofuran-3-yl)acetate]",43.5,56.5,51.1,48.9
"CCOC(=O)CC1=C(Cc2ccc(Cl)cc2)C(=O)O/C1=N\C1CCC(C)CC1 (stereo not drawn) [Compound 3e, Ethyl (Z)-2-(4-(4-chlorobenzyl)-2-((4-methylcyclohexyl)imino)-5-oxo-2,5-dihydrofuran-3-yl)acetate]",45.3,54.7,53.7,46.3
"CCOC(=O)CC1=C(Cc2c3ccccc3cc3ccccc23)C(=O)O/C1=N\C1CCC(C)CC1 (stereo not drawn) [Compound 3k, Ethyl (Z)-2-(4-(anthracen-9-ylmethyl)-2-((4-methylcyclohexyl)imino)-5-oxo-2,5-dihydrofuran-3-yl)acetate]",27.4,72.5,33,67
"CCOC(=O)CC1=C(Cc2cc(OC)ccc2OC)C(=O)O/C1=N\C1CCC(C)CC1 (stereo not drawn) [Compound 3d, Ethyl (Z)-2-(4-(2,5-dimethoxybenzyl)-2-((4-methylcyclohexyl)imino)-5-oxo-2,5-dihydrofuran-3-yl)acetate]",32.9,67.1,54.4,45.6
"CCOC(=O)CC1=C(Cc2ccc(F)c(F)c2)C(=O)O/C1=N\C1CCC(C)CC1 (stereo not drawn) [Compound 3g, Ethyl (Z)-2-(4-(3,4-difluorobenzyl)-2-((4-methylcyclohexyl)imino)-5-oxo-2,5-dihydrofuran-3-yl)acetate]",26.4,73.6,47.2,52.8
"CCOC(=O)CC1=C(Cc2ccccc2F)C(=O)O/C1=N\C1CCC(C)CC1 (stereo not drawn) [Compound 3f, Ethyl (Z)-2-(4-(2-fluorobenzyl)-2-((4-methylcyclohexyl)imino)-5-oxo-2,5-dihydrofuran-3-yl)acetate]",26.6,73.4,49.6,50.4
"CCOC(=O)CC1=C(Cc2cccc(Oc3ccccc3)c2)C(=O)O/C1=N\C1CCC(C)CC1 (stereo not drawn) [Compound 3c, Ethyl (Z)-2-(2-((4-methylcyclohexyl)imino)-5-oxo-4-(3-phenoxybenzyl)-2,5-dihydrofuran-3-yl) acetate]",32.9,67.1,34.8,65.2
"CCOC(=O)CC1=C(Cc2ccc3ccccc3c2)C(=O)O/C1=N\C1CCC(C)CC1 (stereo not drawn) [Compound 3j, Ethyl (Z)-2-(2-((4-methylcyclohexyl)imino)-4-(naphthalen-2-ylmethyl)-5-oxo-2,5-dihydrofuran-3-yl)acetate]",51.7,48.3,59.7,40.3
"CCOC(=O)CC1=C(Cc2cccc(C(F)(F)F)c2)C(=O)O/C1=N\C1CCC(C)CC1 (stereo not drawn) [Compound 3h, Ethyl (Z)-2-(2-((4-methylcyclohexyl)imino)-5-oxo-4-(3-(trifluoromethyl)benzyl)-2,5-dihydrofuran-3-yl)acetate]",49.1,50.9,60.9,39.1
